Measurements published in patent US20230406804A1, “PROTEIN KINASE INHIBITORS” (Xavier University of Louisiana, priority 2018, published 2023).
“Also recorded” adds a separate entry of the source.

Tests used:
HER2 residue Y1248 = assay: Western blot of HER2 autophosphorylation; type: cell-based; conditions: 10 μM, 2 h; MCF7/pcDNA, MCF7/HER2, MCF7/HER2Δ16
Text: (§1) HER2 is a member of the erbB family of tyrosine kinases, which is comprised of four partial homologous transmembrane receptors: EGFR/HER1 (erbB1), HER2 (erbB2/neu), HER3 (erbB3), and HER4 (erbB4). […] Ligand binding induces homo- or hetero-dimerization through disulfide bond linkage, and leads to receptor activation and tyrosine auto-phosphorylation. HER2 is a preferred dimerization partner due to its high catalytic activity and forms potent heterodimers with EGFR and HER3. HER2, with its intrinsic kinase activity can transphosphorylate other members of the erbB family. HER2 and HERΔ16 are overexpressed in the breast cancer cell lines that have been used in this study, leading to the kinases being constitutively active. Upon dimerization, the constitutively active HER2 and HER2Δ16 receptors can transphosphorylate coexpressed EGFR. The levels of phosphorylated HER2 in the parental MCF-7 cell line were less, resulting in its lack of dimerization with EGFR and its transphosphorylation. Western blots were performed to determine the ability of the compounds to inhibit the activation of the HER2 receptor (FIG. 7). The total and phosphorylated protein were detected upon treatment of each of the cells lines with the compounds 6, 7, 8a+8b, 9, 15, 25, 26, 27 and 28 (2-methyl-4,6-dinitro-1H-indene-1,3(2H)-dione) along with the positive control lapatinib at 10 μM concentration for 2 h. […] Compounds 26 and 28 from FIG. 5 were used as negative controls.

EGFR residue Y1068 = target: T1, EGFR residue Y1068 (Homo sapiens, UniProt P00533); assay: Western blot of EGFR transphosphorylation; type: cell-based; conditions: 10 μM, 2 h; MCF7/pcDNA, MCF7/HER2, MCF7/HER2Δ16
T1 construct: endogenous in cells; host or cells: MCF-7/pcDNA, MCF-7/HER2, MCF-7/HER2Δ16
Text: as §1

MCF-7/HER2 = assay: CellTiter-Glo cell viability, IC50; type: cell-based; conditions: Homo sapiens, MCF7, 48 h treatment
Experimental: (§2) The antagonistic activities of the compounds were tested in an estrogen receptor positive (ER+) breast cancer cell line, MCF7 breast cancer cell lines expressing HER2, HER2Δ16 and empty vector. Lapatinib was used as the positive control. The cells were treated with the compounds at 10 μM concentration for 48 h. After treatment, cell viability was tested using the CellTiter-Glo Assay (Promega). […] The […] best compounds 7, 9, the mixture of 8a+8b, 25 and 27 were then taken up for further studies.

MCF-7/HER2Δ16 = assay: CellTiter-Glo cell viability, IC50; type: cell-based; conditions: Homo sapiens, MCF7, 48 h treatment, read-out: IC50 MCF-7/HER2D16
Experimental: as §2

MCF-7/pcDNA = assay: CellTiter-Glo cell viability, IC50; type: cell-based; conditions: Homo sapiens, MCF7, 48 h treatment
Experimental: as §2

[1] = tested on: BT20, MDA-MB-468, MDA-MB-231, SKBR3, BT474, SUM 190PT and SUM 225CWN; assay: Growth inhibition of a panel of breast cancer cell lines; type: cell-based; conditions: triple negative, trastuzumab sensitive and trastuzumab resistant cell lines; read-out: IC50 growth inhibition, range over breast cancer cell line panel
Text: (§3) Compound 7 was taken up for further analysis of its ability to inhibit the growth of a panel of breast cancer cell lines of varied types. The panel included the triple negative cell lines BT20, MDA-MB-468 and MDA-MB-231, the trastuzumab sensitive cell lines SKBR3 and BT474, and the trastuzumab resistant cell lines SUM 190PT and SUM 225CWN (FIG. 9).

MDA-MB-231 = assay: as above; type: cell-based
Text: as §3

[2] = tested on: Aurora kinases A/B (AurK A/B); assay: Cross kinase panel high-throughput assay; type: biochemical; conditions: 10 μM
Experimental: (§4) Compound 7 was then subjected to a cross kinase panel high-throughput assay at 10 μM concentration, at Life Technologies, to determine the selectivity of kinase inhibition (FIG. 10). A panel of 120 disease relevant kinases (available with Life Technologies) were studied. 11 kinases were inhibited at 80% or more-protein kinase B 1/2 (also known as AKT1/2), Aurora kinases A/B (AurK A/B), checkpoint kinase 2 (CHEK2), feline sarcoma kinase (FES), fibroblast growth factor 1 (FGFR1), I kappa B kinase B/E (IKK B/E), mitogen activated protein kinase kinase 1 (MAP2K1), mitogen activated protein kinase kinase kinase 8 (MAP3K8), Never in Mitosis (NIMA) related kinase 2 (NEK2), polo-like kinase 1/3 (PLK1/3), serum/glucocorticoid regulated kinase 1 (SGK1) and TEK tyrosine kinase. All these kinases except for CHEK2 are reported to have tumorigenic roles in breast cancer.

[3] = tested on: I kappa B kinase B/E (IKK B/E); assay: Cross kinase panel high-throughput assay; type: biochemical; conditions: 10 μM
Experimental: as §4

[4] = target: T2, Never in Mitosis (NIMA) related kinase 2 (NEK2) (Homo sapiens, UniProt P51955); assay: Cross kinase panel high-throughput assay; type: biochemical
T2 sequence (P51955 1-445): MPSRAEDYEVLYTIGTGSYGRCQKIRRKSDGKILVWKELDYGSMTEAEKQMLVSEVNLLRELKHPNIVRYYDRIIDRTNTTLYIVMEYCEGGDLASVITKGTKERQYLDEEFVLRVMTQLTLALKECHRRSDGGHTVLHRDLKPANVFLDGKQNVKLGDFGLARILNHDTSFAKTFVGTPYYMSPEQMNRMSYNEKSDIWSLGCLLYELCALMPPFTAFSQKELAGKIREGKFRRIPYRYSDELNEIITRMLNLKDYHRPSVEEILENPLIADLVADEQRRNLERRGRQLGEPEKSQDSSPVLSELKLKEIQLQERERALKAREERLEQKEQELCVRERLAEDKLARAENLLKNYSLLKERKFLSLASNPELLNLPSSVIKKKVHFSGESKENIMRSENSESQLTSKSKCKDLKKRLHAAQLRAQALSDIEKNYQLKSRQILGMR
Experimental: as §4

TEK tyrosine kinase = TEK tyrosine kinase (Homo sapiens, UniProt Q02763); assay: Cross kinase panel high-throughput assay; type: biochemical
Experimental: as §4

[5] = target: checkpoint kinase 2 (CHEK2) (Homo sapiens, UniProt O96017); assay: Cross kinase panel high-throughput assay; type: biochemical
Experimental: as §4

[6] = target: feline sarcoma kinase (FES) (Homo sapiens, UniProt P07332); assay: Cross kinase panel high-throughput assay; type: biochemical
Experimental: as §4

[7] = target: fibroblast growth factor 1 (FGFR1) (Homo sapiens, UniProt P11362); assay: Cross kinase panel high-throughput assay; type: biochemical
Experimental: as §4

[8] = target: mitogen activated protein kinase kinase 1 (MAP2K1) (Homo sapiens, UniProt Q02750); assay: Cross kinase panel high-throughput assay; type: biochemical
Experimental: as §4

[9] = target: mitogen activated protein kinase kinase kinase 8 (MAP3K8) (Homo sapiens, UniProt P41279); assay: Cross kinase panel high-throughput assay; type: biochemical
Experimental: as §4

[10] = tested on: polo-like kinase 1/3 (PLK1/3); assay: Cross kinase panel high-throughput assay; type: biochemical; conditions: 10 μM
Experimental: as §4

[11] = tested on: protein kinase B 1/2 (AKT1/2); assay: Cross kinase panel high-throughput assay; type: biochemical; conditions: 10 μM
Experimental: as §4

[12] = target: T3, serum/glucocorticoid regulated kinase 1 (SGK1) (Homo sapiens, UniProt O00141); assay: Cross kinase panel high-throughput assay; type: biochemical
T3 sequence (O00141 1-431): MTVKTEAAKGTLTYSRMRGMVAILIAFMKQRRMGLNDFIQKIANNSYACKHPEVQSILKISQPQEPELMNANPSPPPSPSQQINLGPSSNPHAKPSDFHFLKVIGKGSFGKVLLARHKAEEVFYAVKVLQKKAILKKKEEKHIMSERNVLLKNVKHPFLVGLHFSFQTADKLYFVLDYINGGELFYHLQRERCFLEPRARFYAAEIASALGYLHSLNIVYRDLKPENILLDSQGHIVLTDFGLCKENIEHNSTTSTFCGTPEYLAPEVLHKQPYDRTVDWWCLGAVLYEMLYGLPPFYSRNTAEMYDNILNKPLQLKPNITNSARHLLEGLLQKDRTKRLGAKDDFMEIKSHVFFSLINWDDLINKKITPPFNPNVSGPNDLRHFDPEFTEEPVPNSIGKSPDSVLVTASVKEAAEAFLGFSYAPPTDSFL
Experimental: as §4

[13] = tested on: MCF7 breast cancer cell lines expressing HER2, HER2Δ16 and empty vector; assay: High-throughput cell viability screen at 10 μM (CellTiter-Glo); type: cell-based; conditions: for suppression of cell viability / inhibition in the high-throughput assay: 48 h
Experimental: The antagonistic activities of the compounds were tested in an estrogen receptor positive (ER+) breast cancer cell line, MCF7 breast cancer cell lines expressing HER2, HER2Δ16 and empty vector. Lapatinib was used as the positive control. The cells were treated with the compounds at 10 μM concentration for 48 h. After treatment, cell viability was tested using the CellTiter-Glo Assay (Promega).

T1 sequence (P00533 25-1210): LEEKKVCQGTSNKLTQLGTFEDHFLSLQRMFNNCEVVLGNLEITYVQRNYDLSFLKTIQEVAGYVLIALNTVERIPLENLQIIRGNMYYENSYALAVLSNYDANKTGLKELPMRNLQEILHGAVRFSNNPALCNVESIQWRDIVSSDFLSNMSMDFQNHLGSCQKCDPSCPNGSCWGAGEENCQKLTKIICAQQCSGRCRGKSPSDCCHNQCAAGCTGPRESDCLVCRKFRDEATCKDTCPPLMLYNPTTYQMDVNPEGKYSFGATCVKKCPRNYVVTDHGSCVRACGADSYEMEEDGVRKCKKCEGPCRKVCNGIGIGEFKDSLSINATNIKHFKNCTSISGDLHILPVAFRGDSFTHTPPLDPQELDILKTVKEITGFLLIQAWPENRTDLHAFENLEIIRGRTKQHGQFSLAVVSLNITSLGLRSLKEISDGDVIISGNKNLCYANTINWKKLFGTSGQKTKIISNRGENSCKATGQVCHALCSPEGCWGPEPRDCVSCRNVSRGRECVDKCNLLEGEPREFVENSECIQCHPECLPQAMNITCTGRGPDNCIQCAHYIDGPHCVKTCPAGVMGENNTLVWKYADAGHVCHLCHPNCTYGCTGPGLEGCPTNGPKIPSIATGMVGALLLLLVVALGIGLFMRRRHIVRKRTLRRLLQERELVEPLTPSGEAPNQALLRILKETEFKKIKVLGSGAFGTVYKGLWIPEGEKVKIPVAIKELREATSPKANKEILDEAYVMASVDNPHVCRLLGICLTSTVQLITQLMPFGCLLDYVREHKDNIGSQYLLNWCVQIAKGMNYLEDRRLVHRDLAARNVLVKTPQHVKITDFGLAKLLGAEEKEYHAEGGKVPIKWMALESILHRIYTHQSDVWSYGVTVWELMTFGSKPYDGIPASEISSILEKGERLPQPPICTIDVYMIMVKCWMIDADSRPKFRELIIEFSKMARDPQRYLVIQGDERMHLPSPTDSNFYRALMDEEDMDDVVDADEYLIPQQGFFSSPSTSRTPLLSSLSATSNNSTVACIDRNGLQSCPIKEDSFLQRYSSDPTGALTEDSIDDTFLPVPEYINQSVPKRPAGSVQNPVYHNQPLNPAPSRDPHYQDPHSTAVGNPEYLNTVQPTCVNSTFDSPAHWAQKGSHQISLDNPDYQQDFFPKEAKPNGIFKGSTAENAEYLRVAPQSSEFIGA
Sequence of mitogen activated protein kinase kinase kinase 8 (MAP3K8) (P41279 whole entry): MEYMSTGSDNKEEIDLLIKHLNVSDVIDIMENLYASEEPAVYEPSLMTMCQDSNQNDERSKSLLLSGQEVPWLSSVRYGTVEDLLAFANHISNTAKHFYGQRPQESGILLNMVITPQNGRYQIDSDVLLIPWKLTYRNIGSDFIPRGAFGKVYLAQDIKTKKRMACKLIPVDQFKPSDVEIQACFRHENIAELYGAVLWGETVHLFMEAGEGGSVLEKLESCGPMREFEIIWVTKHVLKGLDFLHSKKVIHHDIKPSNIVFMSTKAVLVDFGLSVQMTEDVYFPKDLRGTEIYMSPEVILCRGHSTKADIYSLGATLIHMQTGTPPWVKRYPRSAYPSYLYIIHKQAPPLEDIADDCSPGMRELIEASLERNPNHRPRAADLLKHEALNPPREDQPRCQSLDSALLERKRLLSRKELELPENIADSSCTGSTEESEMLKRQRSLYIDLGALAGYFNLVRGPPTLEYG
Sequence of fibroblast growth factor 1 (FGFR1) (P11362 22-822): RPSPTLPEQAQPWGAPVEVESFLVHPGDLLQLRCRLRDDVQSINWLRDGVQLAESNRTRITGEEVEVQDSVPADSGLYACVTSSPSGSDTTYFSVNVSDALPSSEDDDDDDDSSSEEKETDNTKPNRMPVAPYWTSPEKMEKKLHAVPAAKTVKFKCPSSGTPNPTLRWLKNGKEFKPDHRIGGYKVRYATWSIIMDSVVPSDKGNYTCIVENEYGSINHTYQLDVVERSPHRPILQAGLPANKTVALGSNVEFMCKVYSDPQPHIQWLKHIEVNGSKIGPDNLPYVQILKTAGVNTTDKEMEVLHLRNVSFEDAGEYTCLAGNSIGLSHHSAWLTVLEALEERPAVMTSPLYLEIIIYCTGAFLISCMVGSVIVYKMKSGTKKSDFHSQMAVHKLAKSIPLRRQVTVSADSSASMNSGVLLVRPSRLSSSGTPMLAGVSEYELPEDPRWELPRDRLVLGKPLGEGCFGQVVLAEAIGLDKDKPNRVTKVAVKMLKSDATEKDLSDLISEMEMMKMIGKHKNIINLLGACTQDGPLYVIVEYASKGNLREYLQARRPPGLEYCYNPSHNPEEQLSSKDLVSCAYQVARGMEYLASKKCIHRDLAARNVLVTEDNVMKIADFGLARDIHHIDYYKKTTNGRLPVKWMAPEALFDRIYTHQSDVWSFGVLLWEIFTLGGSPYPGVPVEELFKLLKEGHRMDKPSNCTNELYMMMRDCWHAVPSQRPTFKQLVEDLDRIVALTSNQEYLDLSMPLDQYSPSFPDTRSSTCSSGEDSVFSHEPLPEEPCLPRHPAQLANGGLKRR
Sequence of TEK tyrosine kinase (Q02763 23-1124): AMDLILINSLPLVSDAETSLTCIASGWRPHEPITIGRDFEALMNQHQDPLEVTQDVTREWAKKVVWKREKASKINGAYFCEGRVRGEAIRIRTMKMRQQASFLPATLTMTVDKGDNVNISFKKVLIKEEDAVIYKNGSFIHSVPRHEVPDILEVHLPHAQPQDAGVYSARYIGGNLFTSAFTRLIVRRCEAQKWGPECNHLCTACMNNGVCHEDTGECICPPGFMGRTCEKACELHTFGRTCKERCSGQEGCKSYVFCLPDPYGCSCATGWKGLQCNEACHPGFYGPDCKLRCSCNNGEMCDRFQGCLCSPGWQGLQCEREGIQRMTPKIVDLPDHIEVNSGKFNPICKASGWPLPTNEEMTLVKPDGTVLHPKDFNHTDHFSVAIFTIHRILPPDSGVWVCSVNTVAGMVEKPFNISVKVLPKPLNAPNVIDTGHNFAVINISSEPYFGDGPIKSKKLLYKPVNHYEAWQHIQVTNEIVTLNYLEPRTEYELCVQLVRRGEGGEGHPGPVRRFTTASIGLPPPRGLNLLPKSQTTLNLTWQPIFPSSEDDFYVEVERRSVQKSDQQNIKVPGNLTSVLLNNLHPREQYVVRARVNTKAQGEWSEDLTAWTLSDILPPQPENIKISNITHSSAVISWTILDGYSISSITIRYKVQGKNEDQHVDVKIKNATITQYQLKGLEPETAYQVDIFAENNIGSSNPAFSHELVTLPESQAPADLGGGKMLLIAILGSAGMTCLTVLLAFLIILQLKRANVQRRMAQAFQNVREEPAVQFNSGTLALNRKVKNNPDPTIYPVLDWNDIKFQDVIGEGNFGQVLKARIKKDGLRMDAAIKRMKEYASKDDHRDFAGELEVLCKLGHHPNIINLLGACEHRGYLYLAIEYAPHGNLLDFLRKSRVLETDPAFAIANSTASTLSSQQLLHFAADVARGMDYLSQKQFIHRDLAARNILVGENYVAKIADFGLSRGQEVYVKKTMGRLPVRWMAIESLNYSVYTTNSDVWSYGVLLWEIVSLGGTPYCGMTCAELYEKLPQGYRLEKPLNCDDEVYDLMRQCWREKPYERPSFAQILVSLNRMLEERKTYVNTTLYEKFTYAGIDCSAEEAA
Sequence of feline sarcoma kinase (FES) (P07332 whole entry): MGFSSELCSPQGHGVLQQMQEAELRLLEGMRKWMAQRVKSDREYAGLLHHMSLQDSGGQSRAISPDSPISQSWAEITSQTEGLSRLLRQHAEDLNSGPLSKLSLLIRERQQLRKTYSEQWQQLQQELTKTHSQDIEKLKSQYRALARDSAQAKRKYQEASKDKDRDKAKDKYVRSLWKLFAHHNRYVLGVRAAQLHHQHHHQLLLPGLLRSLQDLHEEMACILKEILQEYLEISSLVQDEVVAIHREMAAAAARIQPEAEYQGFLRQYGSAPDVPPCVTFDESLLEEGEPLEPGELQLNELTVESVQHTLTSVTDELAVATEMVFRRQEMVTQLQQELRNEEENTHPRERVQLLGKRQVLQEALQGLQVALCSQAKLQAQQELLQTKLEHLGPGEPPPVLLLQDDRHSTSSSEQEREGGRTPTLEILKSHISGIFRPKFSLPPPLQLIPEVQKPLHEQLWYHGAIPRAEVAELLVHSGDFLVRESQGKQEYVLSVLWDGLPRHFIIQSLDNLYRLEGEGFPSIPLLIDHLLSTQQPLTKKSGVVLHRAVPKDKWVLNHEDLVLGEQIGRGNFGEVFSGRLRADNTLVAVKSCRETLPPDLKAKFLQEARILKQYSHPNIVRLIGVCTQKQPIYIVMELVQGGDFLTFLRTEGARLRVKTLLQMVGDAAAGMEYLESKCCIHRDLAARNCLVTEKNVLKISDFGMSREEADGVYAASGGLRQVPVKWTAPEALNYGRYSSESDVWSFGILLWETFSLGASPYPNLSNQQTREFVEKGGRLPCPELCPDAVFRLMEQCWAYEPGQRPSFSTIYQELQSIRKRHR
Sequence of mitogen activated protein kinase kinase 1 (MAP2K1) (Q02750 whole entry): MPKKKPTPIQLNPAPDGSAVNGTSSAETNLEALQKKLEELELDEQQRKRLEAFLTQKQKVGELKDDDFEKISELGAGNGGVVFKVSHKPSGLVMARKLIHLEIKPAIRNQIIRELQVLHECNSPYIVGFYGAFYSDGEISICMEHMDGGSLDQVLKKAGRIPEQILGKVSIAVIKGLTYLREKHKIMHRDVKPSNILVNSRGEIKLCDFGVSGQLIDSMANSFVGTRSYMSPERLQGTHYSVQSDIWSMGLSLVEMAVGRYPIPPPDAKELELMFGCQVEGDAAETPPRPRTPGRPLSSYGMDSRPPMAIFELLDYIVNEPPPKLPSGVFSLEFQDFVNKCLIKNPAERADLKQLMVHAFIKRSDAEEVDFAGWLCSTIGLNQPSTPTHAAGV

Structure (SMILES)	IC50 (MCF-7/HER2) [µM]	IC50 (MCF-7/HER2Δ16) [µM]	IC50 (MCF-7/pcDNA) [µM]	inhibition of autophosphorylation at HER2-Y1248 (western blot) (HER2 residue Y1248)	inhibition of phosphorylation at EGFR-Y1068 (western blot) (EGFR residue Y1068)	suppression of cell viability / inhibition in the high-throughput assay [13]	also measured
CC1=CC(=O)c2c(O)ccc(O)c2C1=O [Compound 6, 5,8-dihydroxy-2-methylnaphthalene-1,4-dione]				significantly decreased HER2 activating phosphorylation to the same extent as lapatinib; also recorded: inhibit the phosphorylation	decreased; also recorded: inhibit the phosphorylation		
O=C1C=C(CBr)C(=O)c2c(O)ccc(O)c21 [Compound 9, 2-(bromomethyl)-5,8-dihydroxynaphthalene-1,4-dione]	1.78	3.61	1.66	significantly decreased HER2 activating phosphorylation to the same extent as lapatinib; also recorded: inhibit the phosphorylation	decreased; also recorded: inhibit the phosphorylation		
O=C1C=CC(=O)c2c(O)cc(CBr)cc21 [Compound 26, 5-hydroxy-7-bromomethylnaphthalene-1,4-dione]				did not show such an effect on auto-phosphorylation; also recorded: did not show notable inhibition of phosphorylation		showed notable inhibition	
CC1C(=O)c2cc([N+](=O)[O-])cc([N+](=O)[O-])c2C1=O (stereo not shown) [Compound 28, 2-methyl-4,6-dinitro-1H-indene-1,3(2H)-dione]				shows significant phosphorylation	shows significant phosphorylation	did not show notable growth inhibition	
CS(=O)(=O)CCNCc1ccc(-c2ccc3ncnc(Nc4ccc(OCc5cccc(F)c5)c(Cl)c4)c3c2)o1 [Lapatinib, reference compound]	15.8	19.2	15.7				viability at 10 µM ([13]; Homo sapiens, MCF7, 48 h): < 70%

Second part, led by results:

IC50 (MCF-7/HER2) [µM]	IC50 (MCF-7/HER2Δ16) [µM]	IC50 (MCF-7/pcDNA) [µM]	Structure (SMILES)	inhibition of autophosphorylation at HER2-Y1248 (western blot) (HER2 residue Y1248)	inhibition of phosphorylation at EGFR-Y1068 (western blot) (EGFR residue Y1068)	suppression of cell viability / inhibition in the high-throughput assay [13]	also measured
0.29	0.51	0.32	Cc1cc(O)c2c(c1O)C(=O)C=CC2=O [Compound 7, 5,8-dihydroxy-6-methylnaphthalene-1,4-dione]	significantly decreased HER2 activating phosphorylation to the same extent as lapatinib; also recorded: inhibit the phosphorylation	decreased; also recorded: inhibit the phosphorylation		IC50 [1]: 0.123 to 2.92 µM; fold decrease in potency versus the other cell lines (MDA-MB-231): 3-4 fold; kinase inhibition AurK A/B [2]: ≥ 80%; kinase inhibition IKK B/E [3]: ≥ 80%; inhibition at 10 µM [4]: ≥ 80%; inhibition at 10 µM (TEK tyrosine kinase): ≥ 80%; inhibition at 10 µM [5]: ≥ 80%; inhibition at 10 µM [6]: ≥ 80%; inhibition at 10 µM [7]: ≥ 80%; inhibition at 10 µM [8]: ≥ 80%; inhibition at 10 µM [9]: ≥ 80%; kinase inhibition PLK1/3 [10]: ≥ 80%; kinase inhibition AKT1/2 [11]: ≥ 80%; inhibition at 10 µM [12]: ≥ 80%
4.61	9.39	2.93	Cc1ccc(O)c2c1C(=O)C=CC2=O [Compound 22, 5-hydroxy-8-methylnaphthalene-1,4-dione]				
		30.9	Cc1cc(O)c2c(c1)C(=O)C=CC2=O [Compound 25, 5-hydroxy-7-methylnaphthalene-1,4-dione]	did not show such an effect on auto-phosphorylation; also recorded: did not show notable inhibition of phosphorylation		showed notable inhibition	
3.18	7.3	4.94	COc1cc(C)cc2c1C(=O)C=CC2=O [Compound 27, 5-methoxy-7-methylnaphthalene-1,4-dione]	did not show such an effect on auto-phosphorylation; also recorded: did not show notable inhibition of phosphorylation		showed notable inhibition	
